From patent US20080269237A1, “CARBAMIC ACID COMPOUNDS COMPRISING A PIPERAZINE LINKAGE AS HDAC INHIBITORS” (TOPOTARGET UK LIMITED, priority 2002, published 2008)
Like-named read-outs stand apart in the source and are kept apart here.

How the values were obtained:
[1] = tested on: K11 (HPV E7 transformed human keratinocyte line); assay: Secondary assay: cell proliferation inhibition WST-1, K11; assay type: cell-based; conditions: K11, 48 h, read-out: Cell Proliferation Inhibition WST-1 (IC50 unless otherwise specified) K11
From the text: (§1) Compounds with HDAC inhibition activity, as determined using the primary assay, were subsequently evaluated using secondary cell-based assays. The following cell lines were used:
(§2) HeLa—Human cervical adenocarcinoma cell line (ATCC ref. No. CCL-2). K11—HPV E7 transformed human keratinocyte line provided by Pidder Jansen-Duerr, Institut für Biomedizinische Altemsforschung, Innsbruck, Austria. NHEK-Ad—Primary human adult keratinocyte line (Cambrex Corp., East Rutherford, N.J., USA).
(§3) Cells were plated in 96-well plates at 3-10×10^3 cells/well in 100 μL of culture medium. The following day, different concentrations of candidate compounds were added and the cells incubated at 37° C. for 48 h. Subsequently, 10 μL/well of WST-1 reagent was added and the cells reincubated for 1 hour. After the incubation time, absorbance was measured.
(§4) WST-1 is a tetrazolium salt which is cleaved to formazan dye by cellular enzymes. An expansion in the number of viable cells results in an increase in the overall activity of mitochondrial dehydrogenases in the sample. This augmentation in the enzyme activity leads to an increase in the amount of formazan dye formed, which directly correlates to the number of metabolically active cells in the culture. The formazan dye produced is quantified by a scanning multiwell spectrophotometer by measuring the absorbance of the dye solution at 450 nm wavelength (reference wavelength 690 nm).
(§5) Percent activity (% activity) in reducing the number of viable cells was calculated for each test compound as:
(§6) % activity={(S^C−B)/(S^o−B)}×100
(§7) IC50 values were calculated using the software package Prism 3.0 (GraphPad Software Inc., San Diego, Calif.), setting top value at 100 and bottom value at 0.

[2] = tested on: NHEK-Ad (primary human adult keratinocyte line); assay: Secondary assay: cell proliferation inhibition WST-1, NHEK-Ad; assay type: cell-based; conditions: NHEK-AD; 48 h; read-out: Cell Proliferation Inhibition WST-1 (IC50 unless otherwise specified) NHEK-AD
From the text: as §1, §2, §3
WST-1 is a tetrazolium salt which is cleaved to formazan dye by cellular enzymes. […] The formazan dye produced is quantified by a scanning multiwell spectrophotometer by measuring the absorbance of the dye solution at 450 nm wavelength (reference wavelength 690 nm).
Percent activity (% activity) in reducing the number of viable cells was calculated for each test compound as: […]
as §7

[3] = tested on: JURKAT (human T-cell line); assay: Secondary assay: cell proliferation inhibition WST-1, Jurkat; assay type: cell-based; conditions: 48 h, read-out: Cell Proliferation Inhibition WST-1 (IC50 unless otherwise specified) Jurkat
HDAC (HeLa cell extract) = assay: Primary assay: deacetylase activity, HeLa cell extract as source of HDAC; assay type: biochemical, human; conditions: for HDAC Inhibition HeLa, % @ 500 nM: 500 nM compound; for IC50: read-out: HDAC Inhibition (IC50 unless otherwise specified) HeLa; for HDAC Inhibition HeLa, % @ 100 nM: 100 nM compound
Procedure: Decreased activity indicates increased inhibition by the test compound.
Alternatively, the activity of the compounds as HDAC inhibitors was determined using a commercially available fluorescent assay kit: (Fluor de Lys™, BioMol Research Labs, Inc., Plymouth Meeting, USA).
Extensive comparative studies have shown that Primary Assay (1) and Primary Assay (2), discussed above, yield equivalent results. Primary Assay results reported herein are (a) exclusively from (1); (b) exclusively from (2); or (c) from both (1) and (2).
The HeLa cell extract was made from HeLa cells (ATCC Ref. No. CCL-2) by freeze-thawing three times in 60 mM TrisCl pH 8.0, 450 mM NaCl, 30% glycerol. Two cell volumes of extraction buffer were used, and particulate material was centrifuged out (20800 g, 4° C., 10 min). The supernatant extract having deacetylase activity was aliquoted and frozen for storage.
as §6

HeLa cells = assay: Secondary assay: cell proliferation inhibition WST-1, HeLa; assay type: cell-based; conditions: Homo sapiens, 48 h, read-out: Cell Proliferation Inhibition WST-1 (IC50 unless otherwise specified) HeLa
From the text: as §1, §2, §3, §4, §5, §6, §7

Molecule | melting point [°C] | IC50 (HDAC (HeLa cell extract)) [nM] | also measured
Nc1ccccc1NC(=O)c1ccc(CNC(=O)OCc2cccnc2)cc1 [MS-275, reference compound] |  |  | IC50 [1]: 9160 nM; IC50 [2]: 3100 nM; IC50 [3]: 365 nM
O=C(CCCCCC(=O)N1CCN(C(c2ccccc2)c2ccccc2)CC1)NO [PX117403, 7-(4-Benzhydryl-piperazin-1-yl)-7-oxo-heptanoic acid hydroxyamide] | 157 to 159 |  | HDAC Inhibition HeLa, % @ 500 nM (HDAC (HeLa cell extract)): 28% @ 500 nM
O=C(CCCCCC(=O)N1CCN(c2ccccc2)CC1)NO [PX117404, 7-Oxo-7-(4-phenyl-piperazin-1-yl)-heptanoic acid hydroxyamide] | 107 to 109 |  | HDAC Inhibition HeLa, % @ 500 nM (HDAC (HeLa cell extract)): 35% @ 500 nM
O=C(CCCCCCC(=O)N1CCN(C(c2ccccc2)c2ccccc2)CC1)NO [PX117764] | 126 to 129 | 785 | IC50 (HeLa cells): 29200 nM; IC50 ([1]; Homo sapiens, Keratinocyte): 9450 nM; IC50 ([3]; Homo sapiens): 2680 nM
COc1ccccc1N1CCN(C(=O)CCCCCCC(=O)NO)CC1 [PX117768, 8-[4-(2-Methoxy-phenyl)-piperazin-1-yl]-8-oxo-octanoic acid hydroxyamide] | 135 to 137 | 175 | IC50 (HeLa cells): 3300 nM; IC50 ([1]; Homo sapiens, Keratinocyte): 8670 nM; IC50 ([3]; Homo sapiens): 1040 nM
O=C(/C=C/c1cccc(S(=O)(=O)N2CCN(c3ccccc3)CC2)c1)NO [PX118490, (E)-N-Hydroxy-3-{3-[(4-phenyl-1-piperazinyl)sulfonyl]phenyl}-2-propenamide] |  |  | HDAC Inhibition HeLa, % @ 100 nM (HDAC (HeLa cell extract)): 59% @ 100 nM; IC50 (HeLa cells): 1000 nM; IC50 ([1]; Homo sapiens, Keratinocyte): 2490 nM; IC50 ([3]; Homo sapiens): 460 nM
O=C(CCCCCCC(=O)N1CCN(c2ccccc2Cl)CC1)NO [PX118791, 8-[4-(2-Chloro-phenyl)-piperazin-1-yl]-8-oxo octanoic acid hydroxyamide] | 131 to 132 | 36 | 
O=C(CCCCCCC(=O)N1CCN(c2cccc(Cl)c2)CC1)NO [PX118792, 8-[4-(3-Chloro-phenyl)-piperazin-1-yl]-8-oxo octanoic acid hydroxyamide] | 122 to 124 | 34 | 
O=C(CCCCCC(=O)N1CCN(c2ccccc2Cl)CC1)NO [PX118793, 7-[4-(2-Chloro-phenyl)-piperazin-1-yl]-7-oxo heptanoic acid hydroxyamide] | 128 to 130 | 188 | 
O=C(CCCCCC(=O)N1CCN(c2cccc(Cl)c2)CC1)NO [PX118794, 7-[4-(3-Chloro-phenyl)-piperazin-1-yl]-7-oxo heptanoic acid hydroxyamide] | 120 to 122 | 74 | 
O=C(/C=C/c1cccc(S(=O)(=O)N2CCN(c3ccccn3)CC2)c1)NO [PX118807, (E)-N-Hydroxy-3-{3-[(4-(2-pyridinyl)-1-piperazinyl)sulfonyl]phenyl}-2-propenamide] |  |  | HDAC Inhibition HeLa, % @ 100 nM (HDAC (HeLa cell extract)): 60% @ 100 nM
COc1ccccc1N1CCN(S(=O)(=O)c2cccc(/C=C/C(=O)NO)c2)CC1 [PX118810, (E)-N-Hydroxy-3-{3-[(4-(2-methoxyphenyl)-1-piperazinyl)sulfonyl]phenyl}-2-propenamide] | 190 | 46 | 
O=C(/C=C/c1cccc(S(=O)(=O)N2CCN(c3ccccc3Cl)CC2)c1)NO [PX118811, (E)-N-Hydroxy-3-{3-[(4-(2-chlorophenyl)-1-piperazinyl)sulfonyl]phenyl}-2-propenamide] | 183 | 42 | 
O=C(/C=C/c1cccc(S(=O)(=O)N2CCN(c3cccc(Cl)c3)CC2)c1)NO [PX118812, (E)-N-Hydroxy-3-{3-[(4-(3-chlorophenyl)-1-piperazinyl)sulfonyl]phenyl}-2-propenamide] | 201 | 26 | 
O=C(CCCCCCC(=O)N1CCN(C(=O)c2ccc3ccccc3c2)CC1)NO [PX118830, 8-[4-(Naphthalene-2-carbonyl)-piperazin-1-yl]-8-oxo octanoic acid hydroxyamide] | 133.5 to 134.5 | 133 | 
O=C(CCCCCCC(=O)N1CCN(C(=O)c2ccccc2)CC1)NO [PX118831, 8-(4-Benzoyl-piperazin-1-yl)-8-oxo octanoic acid hydroxyamide] | 100 to 101 | 194 | 
CN(C)c1ccc(C(=O)N2CCN(C(=O)CCCCCCC(=O)NO)CC2)cc1 [PX118832] | 90 to 92 | 212 | 
N#Cc1ccc(C(=O)N2CCN(C(=O)CCCCCCC(=O)NO)CC2)cc1 [PX118844, 8-[4-(4-Cyanobenzoyl)-piperazin-1-yl]-8-oxo octanoic acid hydroxyamide] | 150 to 150.5 | 286 | 
COc1ccc(N2CCN(C(=O)CCCCCCC(=O)NO)CC2)cc1 [PX118846, 8-[4-(4-Methoxyphenyl)-piperazin-1-yl]-8-oxo octanoic acid hydroxyamide] | 149 to 150 | 3.4 | 
COc1cccc(N2CCN(C(=O)CCCCCCC(=O)NO)CC2)c1 [PX118847, 8-[4-(3-Methoxyphenyl)-piperazin-1-yl]-8-oxo octanoic acid hydroxyamide] | 122 to 122.5 | 31 | 
CN(C)c1ccc(CC(=O)N2CCN(C(=O)CCCCCCC(=O)NO)CC2)cc1 [PX118848, 8-(4-{2-[4-(Dimethylamino)phenyl]acetyl}-1-piperazinyl)-N-hydroxy-8-oxooctanamide] | 77 to 79 |  | HDAC Inhibition HeLa, % @ 100 nM (HDAC (HeLa cell extract)): 44% @ 100 nM
O=C(CCCCCCC(=O)N1CCN(c2ccc([N+](=O)[O-])cc2)CC1)NO [PX118849, N-Hydroxy-8-[4-(4-nitrophenyl)-1-piperazinyl]-8-oxooctanamide] | 125 to 127 | 26 | 
O=C(CCCCCCC(=O)N1CCN(c2ncccn2)CC1)NO [PX118850, N-Hydroxy-8-oxo-8-[4-(2-pyrimidinyl)-1-piperazinyl]octanamide] | 132 to 133.5 | 70 | 
oxamflatin [reference compound] |  |  | IC50 [3]: 170 nM
